Assay results reported in PMC8251916 (Chemistry (Weinheim an Der Bergstrasse, Germany), 2021).
Where two headings read alike, the source gives them in different places.

Columns and labels:
[1] = tested on: telo23-K+ (hybrid type human telomeric G4); assay: UV-Vis titration, telo23-K+; format: binding; conditions: for Ka, telo23-K+: UV-Vis titration
Description: (§1) To obtain quantitative information on the binding of NDI 1 and PDI 3 to the previously assessed G4 and duplex DNA structures, ultraviolet‐visible absorbance spectroscopy (UV‐Vis) titrations were conducted (Figure 3 and S10). In all cases the ligand concentration was kept constant at 10 μM, whilst oligonucleotide was titrated in up to a final concentration of 30 μM. The observed binding isotherms were fitted to an independent/equivalent sites binding model, and binding constants (K a) were determined. […]
(§2) telo22-Na+ (antiparallel basket […]
(§3) telo23 and telo22 were selected as models for the human telomeric G-quadruplex under K+ and Na+ conditions, respectively, as they have been the subject of detailed structural studies,[S8,S9] […]
(§4) used. telo23 forms primarily a (3+1) hybrid structure under K+ conditions,[S8] whilst telo22 forms a single antiparallel fold.[S9]
The oligonucleotides were at a concentration of 5 µM and the buffers used were either potassium phosphate (100 mM, pH 7.4) for telo23-K+, EBR1-K+ and ds26-K+ or sodium phosphate (100 mM, pH 7.4) for telo22-Na+. The reported spectrum for each sample represents the average of 3 scans and is baseline corrected for the buffer used. Data processing was carried out using Prism 7 (GraphPad Software) with a 4-point second order smoothing polynomial applied to all spectra. Observed ellipticities were converted to molar ellipticity.
(§5) UV-Visible Absorbance Spectroscopy
Absorbance spectra were recorded on a Cary 60 UV-Visible (UV-Vis) spectrophotometer using a room-light immune fibre optic probe with 10 mm path length. The UV-Vis spectra were […]
were corrected for background and buffer absorbance. The oligonucleotides and buffer conditions were the same as employed in the CD experiments.
In the titrations, the concentration of ligand was fixed at 10 µM in an initial volume of 500 µL.
Aliquots of oligonucleotide were added using a microsyringe from a 100 µM stock solution in appropriate buffer containing also 10 µM ligand to maintain constant ligand concentration.
Note: the oligonucleotide solution was annealed by heating to 90 °C for 2 minutes and then cooling on ice prior to the addition of ligand (to avoid annealing in the presence of ligand).
Following addition, the solution was mixed thoroughly and the UV-visible spectrum was […]

[2] = tested on: telo22-Na+ (antiparallel basket human telomeric G4); assay: UV-Vis titration, telo22-Na+; format: binding
Description: as §1, §2, §3, §4
(§6) The oligonucleotides were at a concentration of 5 µM and the buffers used were either potassium phosphate (100 mM, pH 7.4) for telo23-K+, EBR1-K+ and ds26-K+ or sodium phosphate (100 mM, pH 7.4) for telo22-Na+. […]
as §5
(§7) Absorbance spectra were recorded on a Cary 60 UV-Visible (UV-Vis) spectrophotometer using a room-light immune fibre optic probe with 10 mm path length. […]
(§8) were corrected for background and buffer absorbance. […]

[3] = tested on: EBR1-K+ (mixed G4 from T. brucei); assay: UV-Vis titration, EBR1-K+; format: binding
Description: as §1, §2, §3, §4, §6, §5, §7, §8

[4] = tested on: ds26-K+ (self-complementary duplex); assay: UV-Vis titration, ds26-K+; format: binding
Description: as §1, §2, §3, §4, §6, §5, §7, §8

[5] = tested on: F21T-K+ (human telomeric G-quadruplex, mixed parallel/hybrid); conditions: 200 nM DNA, previously reported data for 1, cited from earlier work
[6] = tested on: F21T-Na+ (human telomeric G-quadruplex, antiparallel); conditions: 200 nM DNA, previously reported data for 1, ref S16, cited from earlier work
[7] = tested on: FmycT-K+ (c-Myc promoter G-quadruplex, parallel); conditions: 200 nM DNA, previously reported data for 1, cited from earlier work
[8] = tested on: telo23-K+ (DNA, G4) TAGGGTTAGGGTTAGGGTTAGGG; assay: UV-Vis titration; conditions: independent/equivalent sites, 10 µM ligand, DNA up to 30 µM, apparent
[9] = tested on: telo22-Na+ (DNA, G4) AGGGTTAGGGTTAGGGTTAGGG; assay: UV-Vis titration; conditions: independent/equivalent sites, 10 µM ligand, DNA up to 30 µM, apparent
[10] = tested on: EBR1-K+ (DNA, G4) GGGCAGGGGGTGATGGGGAGGAGCCAGGG; assay: UV-Vis titration; conditions: independent/equivalent sites, 10 µM ligand, DNA up to 30 µM, apparent
[11] = tested on: ds26-K+ (DNA, duplex) CAATCGGATCGAATTCGATCCGATTG; assay: UV-Vis titration; conditions: independent/equivalent sites, 10 µM ligand, DNA up to 30 µM, apparent
[12] = tested on: EBR1-K+ (DNA, G4) GGGCAGGGGGTGATGGGGAGGAGCCAGGG; assay: CD titration; conditions: 20 °C, 5 µM DNA, up to 10 equivalents ligand
[13] = tested on: F21T (DNA, G4) GGGTTAGGGTTAGGGTTAGGG; assay: FRET melting; conditions: 10 mM Li cacodylate, 5 µM ligand, 200 nM DNA
[14] = tested on: FMycT (DNA, G4) TTGAGGGTGGGTAGGGTGGGTAA; assay: FRET melting; conditions: 1 mM K+, 99 mM Li+; 10 mM Li cacodylate; 5 µM ligand, 200 nM DNA
[15] = tested on: F10T (DNA, hairpin, hexaethylene glycol (HEG) linker between 10 and 11) TATAGCTATATATAGCTATA; assay: FRET melting; conditions: 10 mM K+, 90 mM Li+; 10 mM Li cacodylate; 5 µM ligand, 200 nM DNA
[16] = tested on: telo22-Na+ (DNA, G4) AGGGTTAGGGTTAGGGTTAGGG; assay: NMR titration; conditions: 70 mM NaCl; 25 mM sodium phosphate pH 7.0, 10% D2O, 298 K; 185 µM DNA, up to 2 equivalents

Compound | Ka, telo23-K+ [1] | Ka, telo22-Na+ [2] | Ka, EBR1-K+ [3] | Ka, ds26-K+ [4] | Ka [8] | Ka [9] | Ka [10] | Ka [11] | other results
CN1CCN(CCCN2C(=O)c3ccc4c5c(ccc(c35)C2=O)C(=O)N(CCCN2CCN(C)CC2)C4=O)CC1 [Compound 1] | 6×10^6 | 6×10^4 | 2×10^6 | 1×10^6 | 6×10^6 | 6×10^4 | 2×10^6 | 1×10^6 | ΔTm F21T-K+ ([5]; 1 µM ligand, ref S16): 10 ± 1 °C; ΔTm F21T-K+ ([5]; 5 μM ligand): 14±2 °C; ΔTm F21T-K+ ([5]; 10 µM ligand, ref S16): 20 ± 1 °C; ΔTm F21T-Na+ ([6]; 1 µM ligand): -2 ± 1 °C; ΔTm F21T-Na+ ([6]; 10 µM ligand): 2 ± 1 °C; ΔTm FmycT-K+ ([7]; 1 µM ligand, ref S16): 0 ± 1 °C; ΔTm FmycT-K+ ([7]; 5 μM ligand): 7±2 °C; ΔTm FmycT-K+ ([7]; 10 µM ligand, ref S16): 13 ± 1 °C
CN1CCN(CCCN2C(=O)c3ccc4c5ccc6c7c(ccc(c8ccc(c3c48)C2=O)c75)C(=O)N(CCCN2CCN(C)CC2)C6=O)CC1 [Compound 3] | 2×10^6 | 8×10^5 | 3×10^5 | 5×10^4 | 2×10^6 | 8×10^5 | 3×10^5 | 5×10^4 | selectivity for telo23-K+ G4 over EBR1-K+ G4 ([1]; ratio of Ka, UV-Vis): ~7 fold; selectivity for telo23-K+ G4 over ds26-K+ duplex ([1]; ratio of Ka, UV-Vis): 40 fold
CN1CCN(CCCNC(=O)c2ccc(Oc3ccc(C(C)(C)c4ccc(Oc5ccc(C(=O)NCCCN6CCN(C)CC6)c(C(=O)NCCCN6CCN(C)CC6)c5)cc4)cc3)cc2C(=O)NCCCN2CCN(C)CC2)CC1 [Compound 11] |  |  |  |  |  |  |  |  | binding [12]: yes; ΔTm ([13]; 10 mM K+, 90 mM Li+): 7±2 °C; ΔTm ([13]; 100 mM Na+): 1±1 °C; ΔTm [14]: 5±1 °C; ΔTm [15]: 0±1 °C; binding [16]: yes
